Reference: patent publication US8993568B2, “Morpholinyl derivatives useful as MOGAT-2 inhibitors” (Eli Lilly and Company, priority 2012, dated 2015)

Experiments:
TAG absorption = test: Dog Oil Bolus Model (plasma triglyceride after olive oil); assay type: in vivo, dog (male beagles)
Method: Pharmacological Effects in a Dog Oil Bolus Model
Inhibiting MOGAT-2 found in the small intestine may be useful for treating hypertriglyceridemia caused by excessive fat intake. To assess the ability of the exemplified compounds to inhibit TAG absorption, twenty one male beagles (n=7 per treatment group) are enrolled for each study, each dog selected to have a body weight between 9-13 kg. House the dogs in cages with a standard light cycle (12 hours light and 12 hours dark); at room temperature: 72±8° F.; and at 30%-70% relative humidity. Fast the dogs for 16 hours prior to the start of the study, then dose the fasted dogs with vehicle (1% HEC, 0.25%, Tween 80, Antifoam) or one of the test compounds in that vehicle. Bleed the dogs one hour after dosing, (0.5 ml from the jugular vein) for a time 0 sample. Dose the dogs with olive oil (Sigma Catalog#: O-1514, 5 ml/kg) immediately after collection of the time 0 sample. Collect samples into an EDTA tube on ice at 1.5, 2, 3, 5, 7, and 9 hrs post compound/vehicle dosing. Centrifuge the samples at […] for 15 min and analyze (Roche Cat no. 1877771) for plasma total triglyceride using a Roche Hitachi 917. For plasma TAG 18.1—18.1—18.1 measurement, extract the samples and perform LC/MS/MS analysis similarly to that described above in MOGAT-2 Cell Assay using 10 μL of plasma/.
The analyte is the [M+NH4]+ ion of TAG 18:1 18:1 18:1, which has a mass of 902.8 m/z; the internal standard is D5 TAG 16:0 16:0 16:0, which has a mass of 829.8 m/z. Report the ratio of the 603.5 m/z daughter ion of 902.8 m/z (TAG 18:1 18:1 18:1) and the 556.5 m/z daughter ion of 829.8 m/z (D5 TAG 16:0 16:0 16:0 internal standard) changes in TAG 18:1 18:1 18:1 relative amount. Calculate the net plasma TAG AUC from total TAG AUC minus baseline TAG AUC using Graphpad Prism4: (Net AUCTAG=AUCTAG post oil bolus−AUCTAG at 0 hour). The percent inhibition of plasma triglyceride is calculated as follows: the (oil bolus group mean of net TAG AUC−oil bolus group mean of net TAG AUC with compound treatment/oil bolus group mean of net TAG AUC)*100. The final statistic analysis uses Dunnett's method of One way Anova for comparison with the control. All Net TAG AUC values are transformed to ranked averaged AUC for comparison to limit the variability within the studies. The ability of exemplified compounds of the present invention to inhibit MOGAT-2 activity and reduce TAG absorption in vivo can be further evaluated according to this assay.

human MOGAT-2 = human MOGAT-2 (Homo sapiens (Human), UniProt Q3SYC2); test: MOGAT-2 Cell Assay (Caco-2 cells stably transfected with human MOGAT-2, HDG substrate, LC-MS); assay type: cell-based; conditions: Caco-2 cells expressing human MOGAT-2; value (Std Dev., n)
human MOGAT-2, sequence (Q3SYC2 whole entry): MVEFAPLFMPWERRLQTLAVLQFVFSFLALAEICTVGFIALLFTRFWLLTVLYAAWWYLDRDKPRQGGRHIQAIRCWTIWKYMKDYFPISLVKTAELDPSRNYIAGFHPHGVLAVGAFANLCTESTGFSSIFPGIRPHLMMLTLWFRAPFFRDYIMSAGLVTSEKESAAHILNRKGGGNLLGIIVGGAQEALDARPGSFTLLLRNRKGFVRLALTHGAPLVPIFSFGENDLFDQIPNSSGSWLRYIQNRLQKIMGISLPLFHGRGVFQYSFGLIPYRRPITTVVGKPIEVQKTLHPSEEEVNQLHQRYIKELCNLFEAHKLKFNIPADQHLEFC
Method: Inhibitory Activity in MOGAT-2 Cell Assay
The inhibitory activity of compounds against human MOGAT-2 in a cell environment is evaluated in this assay. […] The substrate is delivered to cells using as a mixture with DOPC in the form of sonicated vesicles.
Seed the Caco2 cells onto 100 mm dishes to be 80% confluent after 24 hours in complete media (3/1 DMEM: F12+10% FBS+20 mM HEPES+gentamicin). Transfect the cells with hMOGAT-2 plasmid (MOGAT-2-pCDNA3.1-Hygro) using Lipofectamine 2000 (Invitrogen). After a 6 hour exposure to the transfection mixture, wash the cells three times in PBS and then add media. Incubate the cells for an additional 18 hours incubation, trypsinize the cells and serially dilute them into 100 mm dishes. Add complete media+400 μg/ml hygromycin and incubate until clones appear. Isolate and transfer the clones into 24 well dishes and grow to confluence. Prepare the RNAs from these clones using a Qiagen RNAeasy kit. Perform Taqman analysis using an ABI inventoried assay (HS00228262) on a 7900 Sequence Detection System (ABI).
Mix 2-O-hexadecylglycerol (“HDG”, Biosynth Chemistry & Biology, # H-1806, 562.7 μl of 20 mg/ml) and DOPC (14.3 ml of 20 mg/ml) in chloroform in a glass tube; dry first under N2 gas; and then under reduced pressure for additional 30 minutes. Add 20 ml of buffer (150 mM Tris-Cl pH 7.4, 250 mM sucrose, 1 mM EDTA) to the dried HDG/DOPC mixture while sonicating until the solution becomes clear. Plate the Caco2 cells into a poly-D-lysine coated 96-well plate (the “Cell Plate”) at 37° C., 5% CO2 overnight. Remove the growth media and pretreat the cells with the test compound in DMEMF12 (3:1) media (GIBCO 93-0152DK) containing 2% BSA (Sigma) for 30 minutes. Treat the cells with one test compound in 2% BSA DMEMF12 (3:1) media containing 40 μM of oleic acid and 800 μM of 8.9:91.9 (molar ratio) HDG/DOPC for 4 hours. Trypsinize the cells with 50 μl of trypsin solution and add 50 μl of PBS. Immediately freeze the cells on dry ice and store at −20° C. for LC-MS analysis. […]

[1] = 30 mg/kg PO, combined three studies
[2] = 75 mg/kg PO, combined two studies

C[C@@H](NS(C)(=O)=O)c1ccc(CN2CCO[C@@H](c3ccc(F)cc3)C2)cc1.O=C(O)/C=C\C(=O)O [Example 2, N-[(1R)-1-(4-{[(2S)-2-(4-Fluorophenyl)morpholin-4-yl]methyl}phenyl)ethyl]methanesulfonamide maleate]
inhibition of 18.1 TAG (plasma TAG 18:1 18:1 18:1) (TAG absorption; [1]): 45% | inhibition of TAG absorption (net plasma total TAG AUC) (TAG absorption; [1]): 43% | reduction in excursion of postprandial triglycerides (TAG absorption; 30 mg/kg and 75 mg/kg, combined studies, p<0.05): statistically significant (p<0.05) reduction | inhibition of 18.1 TAG (plasma TAG 18:1 18:1 18:1) (TAG absorption; [2]): 63% | inhibition of TAG absorption (net plasma total TAG AUC) (TAG absorption; [2]): 64%

CS(=O)(=O)N[C@@H](c1ccc(CN2CCOC(c3ccccc3Cl)C2)cc1)C(F)(F)F (single isomer, unassigned; isomer 2) [Example 5]
IC50 (human MOGAT-2): 16 nM

C[C@@H](NS(C)(=O)=O)c1ccc(CN2CCOC(c3cccc(C(F)(F)F)c3)C2)cc1 (single isomer, unassigned; isomer 2) [Example 11]
IC50 (human MOGAT-2): 98 nM

CS(=O)(=O)N[C@@H](c1ccc(CN2CCOC(c3ccc(F)cc3)C2)cc1)C(F)(F)F (single isomer, unassigned; isomer 1) [Example 14]
IC50 (human MOGAT-2): 40 nM
